Data on six compounds can be found in patent US9828379B2 (priority 2013, dated 2017).

For one assay, the target named is T1, Mouse brain MAGL (Mus musculus, UniProt O35678).
T1 construct: from tissue; host or cells: brain of wild-type C57Bl/6J mice dosed by oral gavage
T1 sequence (O35678 1-303): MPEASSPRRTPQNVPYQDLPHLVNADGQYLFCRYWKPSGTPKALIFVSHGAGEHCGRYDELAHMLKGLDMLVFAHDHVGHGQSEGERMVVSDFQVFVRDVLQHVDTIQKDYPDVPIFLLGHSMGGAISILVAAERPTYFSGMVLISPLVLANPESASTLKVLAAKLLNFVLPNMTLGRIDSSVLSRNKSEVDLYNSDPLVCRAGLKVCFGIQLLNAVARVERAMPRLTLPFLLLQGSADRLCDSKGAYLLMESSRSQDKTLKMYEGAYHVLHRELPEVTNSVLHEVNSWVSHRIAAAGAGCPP
Briefly: Mouse brain proteomes from inhibitor treated mice (oral gavage, ABPP analysis). It is filed as in vivo. To be noted: p.o., sacrificed 4 h following administration.

The target in assay [1] is T2, ABHD6 (Mus musculus, UniProt Q8R2Y0).
T2 sequence (Q8R2Y0 1-336): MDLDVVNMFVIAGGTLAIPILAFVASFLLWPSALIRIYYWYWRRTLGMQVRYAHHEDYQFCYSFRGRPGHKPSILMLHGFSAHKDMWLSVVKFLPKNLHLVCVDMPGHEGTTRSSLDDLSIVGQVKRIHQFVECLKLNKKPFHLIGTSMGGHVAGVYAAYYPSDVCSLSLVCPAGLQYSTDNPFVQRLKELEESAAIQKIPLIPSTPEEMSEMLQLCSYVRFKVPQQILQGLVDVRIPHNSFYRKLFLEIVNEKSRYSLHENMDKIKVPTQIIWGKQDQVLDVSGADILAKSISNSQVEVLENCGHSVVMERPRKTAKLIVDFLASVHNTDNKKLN
The assay is described as follows: In vitro competitive activity-based protein profiling (Table 2, % inhibition at 1 μM). To be noted: read-out: % Inhibition at 1 μM ABHD6. It is filed as biochemical.

The target in assay [2] is T3, FAAH (Mus musculus, UniProt O08914).
T3 sequence (O08914 1-579): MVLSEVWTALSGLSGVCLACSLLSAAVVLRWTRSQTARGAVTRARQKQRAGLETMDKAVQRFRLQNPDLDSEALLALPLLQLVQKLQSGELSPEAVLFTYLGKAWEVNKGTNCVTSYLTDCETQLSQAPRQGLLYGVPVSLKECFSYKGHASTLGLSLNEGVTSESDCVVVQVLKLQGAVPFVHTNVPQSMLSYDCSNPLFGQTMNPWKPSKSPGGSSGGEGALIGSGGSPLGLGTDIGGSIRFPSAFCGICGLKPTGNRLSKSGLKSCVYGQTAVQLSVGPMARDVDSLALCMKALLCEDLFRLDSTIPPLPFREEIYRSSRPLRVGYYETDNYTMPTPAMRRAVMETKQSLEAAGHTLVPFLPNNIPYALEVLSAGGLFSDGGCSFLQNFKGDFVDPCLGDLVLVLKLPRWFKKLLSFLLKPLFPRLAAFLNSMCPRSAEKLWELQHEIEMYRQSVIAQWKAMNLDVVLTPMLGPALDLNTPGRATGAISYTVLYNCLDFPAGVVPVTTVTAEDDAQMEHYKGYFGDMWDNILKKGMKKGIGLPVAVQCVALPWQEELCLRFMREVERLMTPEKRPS
The assay is described as above. It is filed as biochemical. To be noted: read-out: % Inhibition at 1 μM FAAH.

Assay [3] concerns the target T3, FAAH. The assay is described as follows: biochemical. To be noted: in vitro competitive ABPP.
Assay [4] concerns the target T4, MAGL (Mus musculus, UniProt O35678).
T4 sequence (O35678 1-303): T1 sequence (O35678 1-303)
The assay is described as follows: biochemical. To be noted: mouse; in vitro competitive ABPP; read-out: Mouse (IC50 value, nM) MAGL.

Assay [5] concerns the target T4, MAGL. The assay is described as follows: In vitro competitive activity-based protein profiling (Table 2, % inhibition at 1 μM). As to conditions: read-out: % Inhibition at 1 μM MAGL. It is filed as biochemical. The method, then: After 30 min, FP—Rh (1.0 μL, 50 μM in DMSO) was added and the mixture was incubated for another 30 min at 37° C. Reactions were quenched with SDS loading buffer (50 μL-4×) and run on SDS-PAGE.
Cell lysates were diluted with mock proteomes for use in competitive ABPP experiments.

Assay [6] deals with T2, ABHD6. Briefly: biochemical. As to conditions: in vitro competitive ABPP.

On Mouse brain MAGL, `CC(C)n1cc(CN2CC3CN(C(=O)OC(C(F)(F)F)C(F)(F)F)CC3C2)c(-c2ccccc2Cl)n1` (stereo not drawn) [Example 54, 1,1,1,3,3,3-Hexafluoropropan-2-yl 5-[[3-(2-chlorophenyl)-1-(propan-2-yl)-1H-pyrazol-4-yl]methyl]-octahydropyrrolo[3,4-c]pyrrole-2-carboxylate] returned an inhibition at 5 mg/kg of 25 to 75%. Also, the values for the inhibition at 1 µM on ABHD6 [1], on FAAH [2] and on MAGL [5] were 25 to 75%, < 25% and > 75%, respectively. Also, the concentration for half-maximal inhibition (IC50) at FAAH [3] was > 10000 nM; at MAGL [4], < 100 nM; at ABHD6 [6], 100 to 1000 nM.
`CCn1ncc(CN2CC3CN(C(=O)OC(C(F)(F)F)C(F)(F)F)CC3C2)c1C(=O)NC1CC1` (stereo not drawn) [Example 74]: the inhibition at 5 mg/kg on Mouse brain MAGL lay within 25 to 75%. In addition, the inhibition at 1 µM on ABHD6 [1] was 25 to 75%; on FAAH [2], < 25%; on MAGL [5] it was > 75%. Moreover, the IC50 on FAAH [3] is > 10000 nM; on MAGL [4], < 100 nM; on ABHD6 [6] it was 100 to 1000 nM.
Regarding `O=C(OC(C(F)(F)F)C(F)(F)F)N1CC2CN(Cc3cc(CN4CCOCC4)ccc3OC(F)(F)F)CC2C1` (stereo not drawn) [Example 188, 1,1,1,3,3,3-hexafluoropropan-2-yl 5-(5-(morpholinomethyl)-2-(trifluoromethoxy)benzyl)hexahydropyrrolo[3,4-c]pyrrole-2(1H)-carboxylate], the inhibition at 5 mg/kg against Mouse brain MAGL was ≥ 75%. Also, the inhibition at 1 µM was < 25% at ABHD6 [1], < 25% on FAAH [2] and > 75% at MAGL [5]. Further, the IC50 on FAAH [3] is 1000 to 10000 nM; on MAGL [4] it was < 100 nM; at ABHD6 [6], 1000 to 10000 nM.
For the compound `CCn1cc(CN2CC3CN(C(=O)OC(C(F)(F)F)C(F)(F)F)CC3C2)c(-c2cccc(N3CCCCC3)c2)n1` (stereo not drawn) [Example 132, 1,1,1,3,3,3-hexafluoropropan-2-yl 5-([1-ethyl-3-[3-(piperidin-1-yl)phenyl]-1H-pyrazol-4-yl]methyl)-octahydropyrrolo[3,4-c]pyrrole-2-carboxylate], the inhibition at 5 mg/kg against Mouse brain MAGL is ≤ 25%. Besides, the results for the inhibition at 1 µM at ABHD6 [1], at FAAH [2] and at MAGL [5] were < 25%, < 25% and > 75%, respectively. Further, the figures for the IC50 on FAAH [3], at MAGL [4] and on ABHD6 [6] were 1000 to 10000 nM, < 100 nM and 1000 to 10000 nM, respectively.
With `O=C(OC(C(F)(F)F)C(F)(F)F)N1CC2CN(Cc3cccc(C(F)(F)F)c3N3CCOCC3)CC2C1` (stereo not drawn) [Example 45, 1,1,1,3,3,3-Hexafluoropropan-2-yl 5-[[2-(morpholin-4-yl)-3-(trifluoromethyl)phenyl]methyl]-octahydropyrrolo[3,4-c]pyrrole-2-carboxylate], the inhibition at 5 mg/kg at Mouse brain MAGL was ≥ 75%. For the same compound, the figures for the inhibition at 1 µM on ABHD6 [1], on FAAH [2] and at MAGL [5] were < 25%, < 25% and > 75%, respectively. Besides, the IC50 on FAAH [3] is 1000 to 10000 nM; at MAGL [4], < 100 nM; on ABHD6 [6] it was 1000 to 10000 nM.
As to `CCn1cc(CN2CC3CN(C(=O)OC(C(F)(F)F)C(F)(F)F)CC3C2)c(-c2ccc(N3CCCCC3)cc2)n1` (stereo not drawn) [Example 133, 1,1,1,3,3,3-hexafluoropropan-2-yl 5-([1-ethyl-3-[4-(piperidin-1-yl)phenyl]-1H-pyrazol-4-yl]methyl)-octahydropyrrolo[3,4-c]pyrrole-2-carboxylate], the inhibition at 5 mg/kg against Mouse brain MAGL was ≤ 25%. Also, the inhibition at 1 µM at ABHD6 [1] is < 25%; at FAAH [2] it was < 25%; on MAGL [5], > 75%. The IC50 is 1000 to 10000 nM on FAAH [3], < 100 nM on MAGL [4] and 1000 to 10000 nM on ABHD6 [6].
